The record followed here is patent US20220056019A1, “FARNESOID X RECEPTOR AGONISTS AND USES THEREOF” (Metacrine, Inc., priority 2018, published 2022).

This test has as its target T1, hFXR (Homo sapiens, UniProt Q96RI1).
T1 construct: expressed in transfected cells; host or cells: CV-1 cells
T1 sequence (Q96RI1 1-486): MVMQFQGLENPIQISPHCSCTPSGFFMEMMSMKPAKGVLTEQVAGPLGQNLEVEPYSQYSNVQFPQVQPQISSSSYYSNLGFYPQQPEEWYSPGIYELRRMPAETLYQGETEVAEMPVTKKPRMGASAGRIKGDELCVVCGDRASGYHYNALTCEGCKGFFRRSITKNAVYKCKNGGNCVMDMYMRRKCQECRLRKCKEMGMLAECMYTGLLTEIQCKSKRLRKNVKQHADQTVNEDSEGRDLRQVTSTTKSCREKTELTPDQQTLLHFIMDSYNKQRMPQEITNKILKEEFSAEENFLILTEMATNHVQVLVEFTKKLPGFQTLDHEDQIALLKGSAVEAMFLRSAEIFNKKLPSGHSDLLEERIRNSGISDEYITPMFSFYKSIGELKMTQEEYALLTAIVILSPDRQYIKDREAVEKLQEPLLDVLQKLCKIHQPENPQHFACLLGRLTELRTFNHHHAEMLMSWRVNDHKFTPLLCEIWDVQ
T1 sequence (P19793 1-462 partner): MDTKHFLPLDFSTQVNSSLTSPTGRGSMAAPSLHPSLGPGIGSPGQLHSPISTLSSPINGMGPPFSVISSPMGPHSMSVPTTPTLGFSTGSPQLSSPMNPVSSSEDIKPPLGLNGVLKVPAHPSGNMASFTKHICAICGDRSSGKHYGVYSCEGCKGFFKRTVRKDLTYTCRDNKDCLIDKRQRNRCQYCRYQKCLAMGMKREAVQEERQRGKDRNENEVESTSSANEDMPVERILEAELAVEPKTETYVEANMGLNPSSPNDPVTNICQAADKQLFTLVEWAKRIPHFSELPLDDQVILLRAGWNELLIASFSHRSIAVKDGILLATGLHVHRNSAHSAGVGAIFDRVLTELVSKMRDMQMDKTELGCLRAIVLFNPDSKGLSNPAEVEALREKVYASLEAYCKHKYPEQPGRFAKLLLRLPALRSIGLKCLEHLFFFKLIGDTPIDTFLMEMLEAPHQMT
Put plainly: In Vitro FXR Assay (TK): TK-ECRE-luc reporter in transfected CV-1 cells. It counts as cell-based. The conditions noted are these: 18 hrs incubation, luminescence. In outline:
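First, CV-1 cells were grown overnight in stripped-serum DMEM, then transfected for 18 h with expression plasmids for human FXR and RXR plus a TK-ECRE luciferase reporter and YFP. Next, serially diluted compounds were applied for 18 h, and lysates were read by luminescence.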
In general, EC50 refers to the midpoint of the concentration-response curve. Read a low EC50 as greater potency. For `COc1ccc(C23CCC(CN(C(=O)C4CCC(OC(=O)N5CC(O)C5)CC4)c4cc(C5CCCN(C(C)C)C5)ccn4)(CC2)CC3)cc1C` (stereo not drawn) [Compound 26.18, 4-((4-(1-Isopropylpiperidin-3-yl)pyridin-2-yl)((4-(4-methoxy-3-methylphenyl)bicyclo[2.2.2]octan-1-yl)methyl)carbamoyl)cyclohexyl trans-3-hydroxyazetidine-1-carboxylate], the EC50 lay in the range of 1000 to 10000 nM.

With `CS(=O)(=O)c1ccc([C@H]2CC[C@H](CN(c3cccc(-c4cnc(C5CC5)s4)c3)C(=O)[C@H]3CC[C@H](OC(=O)N4CC(O)C4)CC3)CC2)cc1` [Compound 5.15, trans-4-((3-(2-Cyclopropylthiazol-5-yl)phenyl)((trans-4-(4-(methylsulfonyl)phenyl)cyclohexyl)methyl)carbamoyl)cyclohexyl 3-hydroxyazetidine-1-carboxylate], the EC50 lay within 50 to 1000 nM.

Take `COc1ccc(C23CCC(CN(c4cc(-c5cnn(C(C)C)c5)ccn4)C(=O)[C@H]4CC[C@H](OC(=O)N5CC(C(C)(C)O)C5)CC4)(CC2)CC3)cc1C` [Compound 4.42, 4-((4-(1-Isopropyl-1H-pyrazol-4-yl)pyridin-2-yl) ((4-(4-methoxy-3-methylphenyl)bicyclo [2.2.2]octan-1-yl)methyl)carbamoyl)cyclohexyl trans-3-(2-hydroxypropan-2-yl)azetidine-1-carboxylate]: the EC50 is no more than 50 nM.

Consider `COc1ccc([C@H]2CC[C@H](CN(c3cc(-c4cnc(C5CC5)s4)ccn3)C(=O)[C@H]3CC[C@H](OC(=O)N4CCN(C)CC4)CC3)CC2)cc1C` [Compound 2.27, trans-4-((4-(2-Cyclopropylthiazol-5-yl)pyridin-2-yl)(((trans)-4-(4-methoxy-3-methylphenyl)cyclohexyl)methyl)carbamoyl)cyclohexyl 4-methylpiperazine-1-carboxylate], for which the EC50 was no more than 50 nM.

`COc1ccc(C23CCC(CN(c4cc(-c5cnn(C(C)C)c5)ccn4)C(=O)[C@H]4CC[C@H](NC(=O)COCCCO)CC4)(CC2)CC3)cc1C` [Compound 13.02, trans-4-(2-(3 Hydroxypropoxy)acetamido)-N-(4-(1-isopropyl-1H-pyrazol-4-yl)pyridin-2-yl)-N-((4-(4-methoxy-3-methylphenyl)bicyclo[2.2.2]octan-1-yl)methyl)cyclohexanecarboxamide] returned a concentration giving a half-maximal response (EC50) of no more than 50 nM.

`COc1ccc([C@H]2CC[C@H](CN(c3cc(-c4cnn(C(C)C)c4)ccn3)C(=O)[C@H]3CC[C@H](OC(=O)NCCCF)CC3)CC2)cc1C` [Compound 2.29, trans-4-((4-(1-Isopropyl-1H-pyrazol-4-yl)pyridin-2-yl)(((trans)-4-(4-methoxy-3-methylphenyl)cyclohexyl)methyl)carbamoyl) cyclohexyl(3-fluoropropyl)carbamate] had an EC50 of no more than 50 nM.

The molecule `CC(C)c1ccc(C23CCC(CN(c4nccc(-c5cnn(C(C)C)c5)n4)C(=O)[C@H]4CC[C@H](OC(=O)N5CC(O)C5)CC4)(CC2)CC3)cc1` [Compound 4.62, 4-((4-(1-Isopropyl-1H-pyrazol-4-yl)pyrimidin-2-yl)((4-(4-isopropylphenyl)bicyclo[2.2.2]octan-1-yl)methyl)carbamoyl)(trans-cyclohexyl) 3-hydroxyazetidine-1-carboxylate] yielded an EC50 of no more than 50 nM.

In turn, `CCOC(=O)N[C@H]1CC[C@H](C(=O)N(C[C@H]2CC[C@H](c3ccc(OC)c(C)c3)CC2)c2cccc(-c3cnn(C(C)C)c3)c2)CC1` [Compound 6.01, Ethyl (trans-4-((3-(1-isopropyl-1H-pyrazol-4-yl)phenyl)((trans-4-(4-methoxy-3-methylphenyl)cyclohexyl)meth-yl)carbamoyl)cyclohexyl)carbamate] showed an EC50 of no more than 50 nM.

In turn, `COc1ccc(C23CCC(CN(c4cc(-c5cnn(C6(C)CCC6)c5)ccn4)C(=O)[C@H]4CC[C@H](OC(=O)NCCO)CC4)(CC2)CC3)cc1C` [Compound 25.16, 4-(((4-(4-Methoxy-3-methylphenyl)bicyclo[2.2.2]octan-1-yl)methyl)(4-(1-(1-methylcyclobutyl)-1H-pyrazol-4-yl)pyridin-2-yl)carbamoyl)(trans-cyclohexyl)(2-hydroxyethyl)carbamate] returned an EC50 of no more than 50 nM.
